# Experimental data from patent publication US10065990B2, “Cyclic peptide compound, and preparation method, pharmaceutical composition and use thereof” (HANGZHOU GUANYU BIO-MEDICAL CO., LTD, priority 2013, dated 2018).
# Like-named read-outs stand apart in the source and are kept apart here.
# Tests used:
# HDAC2 = HDAC2 (Homo sapiens, UniProt Q92769); experiment: HDAC biochemical activity measurement (fluorescent substrate deacetylation);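 note: HDAC2 enzyme with an acetyl-lysine fluorescent substrate, then developer added, fluorescence read at excitation 360 nm and emission 460 nm, inhibition measured across several compound concentrations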; conditions: 37° C. 30 minutes
# HDAC7 = molecular target: T1, HDAC7 (Homo sapiens, UniProt Q8WUI4); experiment: as above; conditions: HDAC7; 37° C. 30 minutes;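 note: fluorogenic deacetylation assay using acetyl-lysine substrate at 20 µM, enzyme and compound incubated 30 min at 37 °C, then developer added, fluorescence read at 360/460 nm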
# T1 sequence (Q8WUI4 1-952): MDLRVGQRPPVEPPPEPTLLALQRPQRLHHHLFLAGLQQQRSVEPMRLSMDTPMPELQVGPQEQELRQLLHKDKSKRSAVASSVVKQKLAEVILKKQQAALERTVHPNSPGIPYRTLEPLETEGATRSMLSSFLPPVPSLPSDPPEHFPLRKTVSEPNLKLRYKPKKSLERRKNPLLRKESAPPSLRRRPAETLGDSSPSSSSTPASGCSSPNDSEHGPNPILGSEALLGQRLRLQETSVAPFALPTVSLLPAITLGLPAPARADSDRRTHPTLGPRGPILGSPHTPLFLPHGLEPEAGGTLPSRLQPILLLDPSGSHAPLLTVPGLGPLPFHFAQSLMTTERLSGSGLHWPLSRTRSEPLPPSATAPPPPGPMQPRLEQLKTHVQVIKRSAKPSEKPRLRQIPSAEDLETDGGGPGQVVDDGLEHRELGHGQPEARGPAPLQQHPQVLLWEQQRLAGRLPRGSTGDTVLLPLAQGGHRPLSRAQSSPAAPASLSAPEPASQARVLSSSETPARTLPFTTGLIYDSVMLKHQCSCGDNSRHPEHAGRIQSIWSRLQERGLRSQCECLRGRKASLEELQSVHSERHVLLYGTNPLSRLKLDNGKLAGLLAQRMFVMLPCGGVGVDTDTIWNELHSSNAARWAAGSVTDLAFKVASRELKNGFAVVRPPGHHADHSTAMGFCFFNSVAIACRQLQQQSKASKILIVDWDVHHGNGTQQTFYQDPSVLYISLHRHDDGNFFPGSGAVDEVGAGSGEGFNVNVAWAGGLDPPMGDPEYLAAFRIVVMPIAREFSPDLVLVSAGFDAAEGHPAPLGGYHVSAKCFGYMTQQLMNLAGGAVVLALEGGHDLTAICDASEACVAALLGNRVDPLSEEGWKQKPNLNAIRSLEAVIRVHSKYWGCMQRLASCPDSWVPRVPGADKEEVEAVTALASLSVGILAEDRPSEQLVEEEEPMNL
# [1] = tested on: H1975 (non-small cell lung adenocarcinoma); experiment: MTT cancer cell growth inhibition; format: cell-based; conditions: Homo sapiens, NCI-H1975, 72 h, MTT, 72 hours incubation, H1975 cells; read-out: GI50 H1975
# Outline: (§1)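 Three-day compound exposure (final 10^−5–10^−10 M, three replicate wells) of cells seeded at 1500 per well precedes a 4 h MTT incubation at 37° C. Viability is taken from 570 nm absorbance after DMSO solubilisation, and GI50 calculated from it.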
# [2] = tested on: HCC827 (human non-small cell lung cancer cells); experiment: MTT cancer cell growth inhibition; format: cell-based; conditions: Homo sapiens, HCC827, 72 h, MTT, 72 hours incubation, HCC827 cells; read-out: GI50 HCC827
# Outline: as §1
# [3] = tested on: HT1080 (human fibrosarcoma cells); experiment: MTT cancer cell growth inhibition; format: cell-based; conditions: Homo sapiens, HT-1080, 72 h, MTT
# Outline: as §1
# [4] = tested on: Hela (human cervical cancer cells); experiment: MTT cancer cell growth inhibition; format: cell-based; conditions: Homo sapiens, HeLa, 72 h, MTT
# Outline: as §1
# [5] = tested on: K562 (human leukemia cells); experiment: MTT cancer cell growth inhibition; format: cell-based; conditions: Homo sapiens, K562, 72 h, MTT, 72 hours incubation, K562 cells; read-out: GI50 K562
# Outline: as §1
# [6] = tested on: KBM-5 (human chronic myelogenous leukemia); experiment: MTT cancer cell growth inhibition; format: cell-based; conditions: Homo sapiens, KBM5, 72 h, MTT, 72 hours incubation, KBM-5 cells; read-out: GI50 KBM-5
# Outline: as §1
# [7] = tested on: KBM5-T315I (human chronic myelogenous leukemia); experiment: MTT cancer cell growth inhibition; format: cell-based; conditions: Homo sapiens, 72 h, MTT, 72 hours incubation, KBM5-T315I cells; read-out: GI50 KBM5-T315I
# Outline: as §1
# [8] = tested on: MDA-MB-231 (breast cancer cells); experiment: MTT cancer cell growth inhibition; format: cell-based; conditions: Homo sapiens, MDA-MB-231, 72 h, read-out: GI50 MDA-MB-231, MTT, 72 hours incubation, MDA-MB-231 cells
# Outline: as §1
# [9] = tested on: N-87 (human gastric cancer cells); experiment: MTT cancer cell growth inhibition; format: cell-based; conditions: Homo sapiens, 72 h, MTT, 72 hours incubation, N-87 cells; read-out: GI50 N-87
# Outline: as §1
# [10] = tested on: SGC-7901 (human gastric cancer cells); experiment: MTT cancer cell growth inhibition; format: cell-based; conditions: Homo sapiens, SGC-7901, 72 h, MTT, 72 hours incubation, SGC-7901 cells; read-out: GI50 SGC-7901
# Outline: as §1
# HDAC11 = molecular target: T2, HDAC11 (Homo sapiens, UniProt Q96DB2); experiment: HDAC biochemical activity measurement (fluorescent substrate deacetylation);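 note: HDAC11 enzyme acting on an acetyl-lysine fluorogenic substrate, then a developer frees the fluorophore, read at excitation 360 nm and emission 460 nm, IC50 over a compound dilution series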
# T2 sequence (Q96DB2 1-347): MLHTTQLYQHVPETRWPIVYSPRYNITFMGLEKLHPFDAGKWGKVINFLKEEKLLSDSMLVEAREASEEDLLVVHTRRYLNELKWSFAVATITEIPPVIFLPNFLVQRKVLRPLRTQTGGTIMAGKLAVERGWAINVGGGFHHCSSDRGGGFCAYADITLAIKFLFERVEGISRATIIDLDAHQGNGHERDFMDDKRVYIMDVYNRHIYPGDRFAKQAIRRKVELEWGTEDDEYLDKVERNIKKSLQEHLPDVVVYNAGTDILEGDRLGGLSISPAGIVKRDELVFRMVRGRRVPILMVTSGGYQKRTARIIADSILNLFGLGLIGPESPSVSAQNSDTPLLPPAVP
# Method: The chemical activity of the compound is determined according to the degree of deacetylation inhibition of the HDAC enzyme. This experiment measured the degree of deacetylation related to tumor proliferation and metastasis of HDAC1, HDAC2, HDAC3, HDAC8, HDAC11 five subtypes HDAC enzymes. After the substrate containing an acetylated lysine side chain and HDAC enzyme are labeled with a fluorescent label, the fluorescent substrate is de acetyl. The fluorescent labeled substrate is cleaved by the enzyme, and the fluorescent substance is released, which generates 460 nm emission light under the excitation of 360 nm light.
# HDAC substrate was diluted with reaction buffer to 200M (reaction concentration of 20M), the HDAC enzyme was diluted to the appropriate concentration, then added different concentrations of the test compounds and acted at 37° C. 30 minutes, and then added the same volume of 2-times concentration substrate developing solution (developer), incubated at room temperature for 15 minutes.
# [11] = HT1080 cells, 72 hours incubation, read-out: GI50 HT1
# [12] = Hela cells, 72 hours incubation, read-out: GI50 Hela
# [13] = 72 hours incubation, read-out: GI50 HT1
# [14] = 72 hours incubation, read-out: GI50 Hela
# [15] = read-out: IC50 HDAC11, HDAC11, 37° C. 30 minutes
# [16] = 72 hours, present invention, read-out: GI50 HT1080, a
# [17] = 72 hours, present invention, read-out: GI50 Hela, a
# HDAC2, sequence (Q92769 whole entry, species assumed): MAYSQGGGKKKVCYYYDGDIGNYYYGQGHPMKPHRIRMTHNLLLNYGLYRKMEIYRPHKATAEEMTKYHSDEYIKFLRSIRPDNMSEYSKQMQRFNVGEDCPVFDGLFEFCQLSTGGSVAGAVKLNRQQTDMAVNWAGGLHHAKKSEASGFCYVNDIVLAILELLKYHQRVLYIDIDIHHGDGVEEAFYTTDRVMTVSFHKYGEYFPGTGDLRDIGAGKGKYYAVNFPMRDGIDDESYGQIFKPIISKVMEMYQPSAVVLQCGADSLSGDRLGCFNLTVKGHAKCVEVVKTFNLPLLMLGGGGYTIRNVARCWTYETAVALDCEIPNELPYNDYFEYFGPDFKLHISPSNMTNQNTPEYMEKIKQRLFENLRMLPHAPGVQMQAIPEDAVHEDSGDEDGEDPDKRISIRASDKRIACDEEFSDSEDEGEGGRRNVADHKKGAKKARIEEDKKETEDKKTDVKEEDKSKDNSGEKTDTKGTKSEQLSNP
Structure (SMILES),IC50 (HDAC2) [µM],IC50 HDAC7 (HDAC7),GI50 [1] [µM],GI50 [2] [µM],"GI50 [3, 11] [µM]","GI50 [4, 12] [µM]",GI50 [5] [µM],GI50 [6] [µM],GI50 [7] [µM],GI50 [8] [µM],GI50 [9] [µM],GI50 [10] [µM],IC50 (HDAC11) [µM],"GI50 [3, 13] [µM]","GI50 [4, 14] [µM]",IC50 (HDAC11; [15]) [µM],"GI50 [3, 16] [µM]","GI50 [4, 17] [µM]"
C/C=C1\NC(=O)c2ccc(SC)c(n2)CNC(=O)C[C@@H](/C=C/CCSC(=O)CCCCCCC)OC(=O)[C@H](Cc2ccccc2)NC1=O [Compound 191],0.036,no activity,0.032,0.049,0.05,0.13,0.041,0.036,0.032,0.052,0.011,0.033,0.085,–,–,–,–,–
C/C=C1\NC(=O)c2nc(ccc2F)CNC(=O)C[C@@H](/C=C/CCSC=O)OC(=O)[C@H](C(C)C)NC1=O [Example 51],0.052,no activity,0.063,0.072,–,–,0.046,0.083,0.077,0.029,0.065,0.045,0.103,0.07,0.08,–,–,–
C/C=C1\NC(=O)c2nc(ccc2SC)CNC(=O)C[C@@H](/C=C/CCSC(=O)CCCCCCC)OC(=O)[C@H](CC)NC1=O [Compound 171],0.035,no activity,0.071,0.023,0.04,0.05,0.046,0.033,0.068,0.065,0.039,0.028,0.095,–,–,–,–,–
C/C=C1\NC(=O)c2cccc(n2)CNC(=O)C[C@@H](/C=C/CCSC(C)=O)OC(=O)[C@H](CCCCNC(=O)OCC2c3ccccc3-c3ccccc32)NC1=O [Compound 16],0.056,no activity,0.039,0.049,–,–,0.025,0.082,0.019,0.093,0.027,0.051,–,1.3,21,0.095,–,–
C/C=C1\NC(=O)c2cc(SC)cc(n2)CNC(=O)C[C@@H](/C=C/CCSC(C)=O)OC(=O)[C@H](CC)NC1=O [Compound 178],0.026,no activity,0.089,0.032,0.02,0.06,0.053,0.093,0.022,0.026,0.055,0.076,0.099,–,–,–,–,–
C/C=C1\NC(=O)c2nc(ccc2SC)CNC(=O)C[C@@H](/C=C/CCS)OC(=O)[C@H](C)NC1=O [Compound 232],0.093,no activity,0.056,0.038,0.02,0.03,0.042,0.008,0.043,0.023,0.045,0.063,0.152,–,–,–,–,–
C/C=C1\NC(=O)c2cccc(n2)CNC(=O)C[C@@H](/C=C/CCSC(=O)CCCCCCC)OC(=O)[C@H](CC)NC1=O [Compound 9],0.064,no activity,0.026,0.053,–,–,0.083,0.044,0.026,0.097,0.035,0.031,–,0.04,0.05,0.101,0.04,0.05
C/C=C1\NC(=O)c2cccc(n2)CNC(=O)C[C@@H](/C=C/CCSC(=O)CCCCCCC)OC(=O)CNC1=O [Compound 235],0.019,no activity,0.063,0.085,0.02,0.04,0.042,0.027,0.092,0.045,0.063,0.042,–,–,–,0.019,0.024,0.047
C/C=C1\NC(=O)c2cccc(n2)CNC(=O)C[C@@H](/C=C/CCSC(=O)CCCCCCC)OC(=O)[C@@H](C)NC1=O [Compound 236],0.038,no activity,0.072,0.026,0.19,0.81,0.073,0.033,0.053,0.017,0.026,0.048,–,–,–,0.072,0.197,0.81
C/C=C1\NC(=O)c2nc(ccc2F)CNC(=O)C[C@@H](/C=C/CCSC(C)=O)OC(=O)[C@H](C)NC1=O [Example 63],0.058,no activity,0.034,0.094,–,–,0.053,0.093,0.057,0.049,0.059,0.051,0.091,0.09,0.09,–,–,–
C/C=C1\NC(=O)c2cccc(n2)CNC(=O)C[C@@H](/C=C/CCSC(=O)CCCCCCC)OC(=O)[C@H](c2ccc(O)cc2)NC1=O [Compound 238],0.083,no activity,0.082,0.029,0.02,0.05,0.065,0.052,0.066,0.046,0.026,0.056,–,–,–,0.065,0.026,0.055
